Active and inactive are the calls of the source.
How the values were obtained:
[1] = target: T1, Ubiquitin-conjugating enzyme E2 N (Homo sapiens, UniProt P61088); type: functional;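 also: Dose-response confirmation in a TR-FRET assay detecting UBC13-driven polyubiquitin chain formation, inhibition measured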
T1 sequence (P61088 whole entry): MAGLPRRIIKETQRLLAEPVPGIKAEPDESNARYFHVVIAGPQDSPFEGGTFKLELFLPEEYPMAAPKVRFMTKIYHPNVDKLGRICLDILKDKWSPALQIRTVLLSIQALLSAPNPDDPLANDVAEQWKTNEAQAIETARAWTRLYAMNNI

[2] = target: T2, High affinity choline transporter 1 (Homo sapiens, UniProt Q9GZV3); experiment: human choline transporter blockers, potency – cell-based, 5-point CRC, membrane potential dye, dose response (AID 504840); type: functional
T2 sequence (Q9GZV3 whole entry): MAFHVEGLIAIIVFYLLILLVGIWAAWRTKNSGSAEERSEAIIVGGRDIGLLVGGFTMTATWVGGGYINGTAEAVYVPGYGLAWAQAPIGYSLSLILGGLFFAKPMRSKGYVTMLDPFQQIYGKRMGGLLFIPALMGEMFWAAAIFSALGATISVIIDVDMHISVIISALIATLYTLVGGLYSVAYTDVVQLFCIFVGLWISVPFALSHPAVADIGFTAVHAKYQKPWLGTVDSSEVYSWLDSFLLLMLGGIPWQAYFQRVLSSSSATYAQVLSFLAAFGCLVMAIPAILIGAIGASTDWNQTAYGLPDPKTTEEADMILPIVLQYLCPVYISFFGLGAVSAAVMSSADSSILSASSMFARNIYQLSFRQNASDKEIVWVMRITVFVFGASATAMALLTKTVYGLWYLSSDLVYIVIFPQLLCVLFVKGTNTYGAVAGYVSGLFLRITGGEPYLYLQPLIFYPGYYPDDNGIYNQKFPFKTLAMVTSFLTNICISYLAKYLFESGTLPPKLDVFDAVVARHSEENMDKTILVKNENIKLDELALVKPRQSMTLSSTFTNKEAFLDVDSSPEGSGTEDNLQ

H9c2 = experiment: cells; type: functional, cell-based; conditions: Rattus norvegicus, H9c2, Myocardium;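 also: confirmatory concentration-response retest of ultra-high-throughput screening hits for modulation of myocardial damage; cell death induced by hydrogen peroxide oxidative stress; compound pretreatment for 60 min then peroxide exposure for 2 h; potency is for protecting the cells against peroxide damage rather than for killing them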
[3] = blockers of HIV-1 ZM109 envelope-driven cell-cell fusion – HeLa effector, CEM target cells, luciferase, cherry-pick, dose response (AID 652058); type: functional, cell-based;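 also: luciferase signal from HIV-1 Env mediated cell-cell fusion of effector and target cells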
[4] = HIV-1 AD8 envelope cell-cell fusion blockers – cherry-pick, dose response (AID 652062); type: functional, cell-based;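 also: luciferase signal from cell-cell fusion driven by HIV-1 clade B AD8 Env; potency is for inhibitors of fusion seen as a drop in luminescence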
[5] = blockers of HIV-1 envelope-mediated cell-cell fusion – cherry-pick, dose response (AID 652057); type: functional, cell-based
[6] = off-target signal loss in HeLa-CEM21 co-culture – HeLa F-luc CTL cells, cherry-picked, counter-screen for HIV-1 Env fusion inhibitor project, dose response (AID 652040); type: functional, cell-based;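 also: potency for signal decrease marking cytotoxic or nonspecific inhibition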
[7] = target: T3, Small ubiquitin-related modifier 1 (Homo sapiens, UniProt P63165); experiment: SUMO1 protein interaction blockers, potency – biochemical, fluorescence polarization, uHTS hits, dose response (AID 624382); type: functional; conditions: read-out: IC50_Mean
[8] = target: T3, Small ubiquitin-related modifier 1; experiment: SUMO1 protein-protein binding blockers, potency – biochemical, FRET, dose response (AID 624383); type: functional; conditions: read-out: IC50_Mean
Genome polyprotein = Genome polyprotein (dengue virus type 2, UniProt P29990); experiment: flavivirus cap methylation enzyme inhibition – biochemical, confirmation dose response, primary screen (AID 588689); type: functional
[9] = target: T4, Rac GTPase-activating protein 1 (Homo sapiens, UniProt Q9H0H5); experiment: blockers of MgcRacGAP-driven Rac1 GTP hydrolysis – biochemical, ADP Hunter fluorescence, primary and confirmatory, confirmation (AID 624330); type: functional
T4 sequence (Q9H0H5 whole entry): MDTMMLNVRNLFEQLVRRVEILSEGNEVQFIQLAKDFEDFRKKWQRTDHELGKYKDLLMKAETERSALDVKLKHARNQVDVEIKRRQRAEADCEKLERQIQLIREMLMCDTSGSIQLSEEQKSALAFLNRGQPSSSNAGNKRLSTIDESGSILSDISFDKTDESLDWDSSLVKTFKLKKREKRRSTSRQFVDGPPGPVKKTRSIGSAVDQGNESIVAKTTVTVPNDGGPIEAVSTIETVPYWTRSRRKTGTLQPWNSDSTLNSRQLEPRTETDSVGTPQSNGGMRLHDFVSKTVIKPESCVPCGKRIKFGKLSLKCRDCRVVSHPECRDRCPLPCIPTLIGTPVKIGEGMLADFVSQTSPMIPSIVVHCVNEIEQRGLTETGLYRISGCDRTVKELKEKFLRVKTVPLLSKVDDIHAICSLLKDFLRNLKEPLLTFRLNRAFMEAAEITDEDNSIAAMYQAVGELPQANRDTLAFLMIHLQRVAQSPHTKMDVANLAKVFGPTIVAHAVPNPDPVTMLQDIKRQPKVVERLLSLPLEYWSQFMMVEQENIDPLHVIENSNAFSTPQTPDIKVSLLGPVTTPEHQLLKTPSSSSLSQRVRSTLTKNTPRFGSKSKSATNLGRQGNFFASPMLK

[10] = target: T5, Histone-lysine N-methyltransferase NSD2 (Homo sapiens, UniProt O96028); type: biochemical
T5 sequence (O96028 whole entry): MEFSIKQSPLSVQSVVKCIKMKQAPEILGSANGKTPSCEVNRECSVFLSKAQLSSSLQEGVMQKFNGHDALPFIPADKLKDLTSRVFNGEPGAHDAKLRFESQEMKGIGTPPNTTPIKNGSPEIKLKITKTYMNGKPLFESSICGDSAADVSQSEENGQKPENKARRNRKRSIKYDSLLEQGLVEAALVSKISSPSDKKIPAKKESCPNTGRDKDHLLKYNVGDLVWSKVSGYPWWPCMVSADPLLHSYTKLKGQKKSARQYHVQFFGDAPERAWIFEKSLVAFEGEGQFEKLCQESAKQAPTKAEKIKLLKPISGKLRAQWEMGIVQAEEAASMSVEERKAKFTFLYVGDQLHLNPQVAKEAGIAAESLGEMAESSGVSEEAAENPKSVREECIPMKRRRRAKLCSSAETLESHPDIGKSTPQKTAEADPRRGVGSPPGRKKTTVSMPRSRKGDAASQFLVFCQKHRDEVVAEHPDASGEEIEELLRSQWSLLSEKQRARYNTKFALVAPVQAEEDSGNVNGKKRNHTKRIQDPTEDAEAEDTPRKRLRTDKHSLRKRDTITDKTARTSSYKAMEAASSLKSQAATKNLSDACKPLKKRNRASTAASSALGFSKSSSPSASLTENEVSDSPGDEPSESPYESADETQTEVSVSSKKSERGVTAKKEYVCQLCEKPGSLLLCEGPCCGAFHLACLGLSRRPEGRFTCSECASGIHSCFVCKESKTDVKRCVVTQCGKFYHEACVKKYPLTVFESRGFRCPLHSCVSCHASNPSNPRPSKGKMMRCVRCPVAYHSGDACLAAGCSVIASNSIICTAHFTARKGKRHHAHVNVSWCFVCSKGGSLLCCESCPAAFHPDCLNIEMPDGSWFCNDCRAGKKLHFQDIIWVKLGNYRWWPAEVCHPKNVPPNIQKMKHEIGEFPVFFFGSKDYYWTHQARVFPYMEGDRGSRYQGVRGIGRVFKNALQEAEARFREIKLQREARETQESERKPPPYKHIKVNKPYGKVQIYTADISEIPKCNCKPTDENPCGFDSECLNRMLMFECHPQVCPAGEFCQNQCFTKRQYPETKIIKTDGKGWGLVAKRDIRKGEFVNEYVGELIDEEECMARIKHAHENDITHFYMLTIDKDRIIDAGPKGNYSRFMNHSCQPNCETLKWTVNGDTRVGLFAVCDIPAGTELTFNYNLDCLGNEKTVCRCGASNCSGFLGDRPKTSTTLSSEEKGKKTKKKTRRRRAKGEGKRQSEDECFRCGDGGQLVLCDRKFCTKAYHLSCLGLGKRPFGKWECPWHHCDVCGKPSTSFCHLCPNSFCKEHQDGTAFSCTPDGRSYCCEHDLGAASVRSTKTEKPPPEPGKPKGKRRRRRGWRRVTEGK

[11] = target: Heat shock protein HSP 90-alpha (Homo sapiens, UniProt P07900); type: functional, organism-based
[12] = target: FAD-linked sulfhydryl oxidase ALR (Homo sapiens, UniProt P55789); experiment: ALR-catalysed DTT oxidation blockers – biochemical, H2O2 detection, luminescence, cherry-pick, dose response (AID 493248)
SN12K1 = experiment: cells; type: functional; conditions: Homo sapiens
Streptococcus = experiment: GAS UMAA2166 growth inhibition – luminescence, BacTiterGlo, counter-screen for streptokinase expression inhibitor project, dose response (AID 1915); type: functional, organism-based;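 also: potency for reduction of bacterial viability or growth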
[13] = DRD fibroblast viability loss – cell-based, non-viral oncogenic, luminescence, dose response (AID 1934); type: functional; conditions: Homo sapiens
BJ [14] = experiment: BJ-TERT-LT-ST fibroblast viability loss – cell-based, RAS-independent, luminescence, dose response (AID 1935); type: functional; conditions: Homo sapiens;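 also: BJ fibroblasts immortalized with TERT plus LT and ST oncogenes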
[15] = system: Streptococcus sp. 'group A'; experiment: Streptococcus pyogenes SK(-)GAS viability under kanamycin – luminescence, BacTiterGlo, confirmation, counter-screen for streptokinase expression inhibitor project, dose response (AID 1900); type: functional, organism-based
BJ [16] = experiment: BJ-TERT fibroblast viability loss – cell-based, RAS-independent, luminescence, dose response (AID 1933); type: functional; conditions: Homo sapiens
BJ [17] = experiment: cells; type: functional, cell-based; conditions: Homo sapiens

T3 sequence (P63165 whole entry): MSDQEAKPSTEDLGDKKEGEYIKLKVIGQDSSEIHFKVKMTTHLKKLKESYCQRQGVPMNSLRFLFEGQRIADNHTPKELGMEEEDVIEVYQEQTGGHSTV
Sequence of FAD-linked sulfhydryl oxidase ALR (P55789 whole entry): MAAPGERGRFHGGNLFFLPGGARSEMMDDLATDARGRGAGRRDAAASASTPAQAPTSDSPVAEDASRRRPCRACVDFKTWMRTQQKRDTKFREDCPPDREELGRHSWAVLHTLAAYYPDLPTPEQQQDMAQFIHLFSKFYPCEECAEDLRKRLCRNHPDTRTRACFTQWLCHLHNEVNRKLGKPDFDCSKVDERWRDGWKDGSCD
Sequence of Genome polyprotein (P29990 2492-3391 limits assumed): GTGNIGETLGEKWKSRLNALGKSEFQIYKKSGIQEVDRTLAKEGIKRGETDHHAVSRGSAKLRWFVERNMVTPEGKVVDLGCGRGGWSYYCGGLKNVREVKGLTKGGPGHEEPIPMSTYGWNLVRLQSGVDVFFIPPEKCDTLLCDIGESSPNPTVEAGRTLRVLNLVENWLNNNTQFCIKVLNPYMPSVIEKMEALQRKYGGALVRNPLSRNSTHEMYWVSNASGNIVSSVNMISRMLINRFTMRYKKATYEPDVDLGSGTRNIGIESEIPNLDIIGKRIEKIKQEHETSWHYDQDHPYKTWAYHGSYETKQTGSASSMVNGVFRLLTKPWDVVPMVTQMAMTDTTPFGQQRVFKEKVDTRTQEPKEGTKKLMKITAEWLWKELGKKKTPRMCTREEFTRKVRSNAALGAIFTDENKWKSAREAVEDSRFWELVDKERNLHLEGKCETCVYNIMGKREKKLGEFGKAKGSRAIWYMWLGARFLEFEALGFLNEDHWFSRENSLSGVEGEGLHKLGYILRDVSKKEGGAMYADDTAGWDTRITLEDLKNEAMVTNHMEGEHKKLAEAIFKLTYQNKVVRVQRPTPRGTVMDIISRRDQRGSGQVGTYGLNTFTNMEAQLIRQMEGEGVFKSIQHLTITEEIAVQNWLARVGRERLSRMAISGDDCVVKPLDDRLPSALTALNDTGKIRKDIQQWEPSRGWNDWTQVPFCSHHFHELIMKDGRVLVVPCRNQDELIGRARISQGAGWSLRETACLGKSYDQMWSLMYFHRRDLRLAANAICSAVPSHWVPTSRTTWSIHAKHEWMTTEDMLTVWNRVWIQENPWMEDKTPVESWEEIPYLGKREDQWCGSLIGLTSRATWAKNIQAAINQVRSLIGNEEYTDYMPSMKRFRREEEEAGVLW

Compound: O=C(C(=O)N1CCOCC1)c1cn(Cc2ccccc2Cl)c2ccccc12
- IC50 [1]: > 20 µM (inactive)

Compound: COc1ccc(-c2csc(Cc3nnc4n3CCCCC4)n2)cc1
- IC50 [2]: 9.12 µM (active)

Compound: O=C(NCC1CCCCC1)C1(CC2CC(c3ccc(Cl)cc3)=NO2)CCNCC1 (stereo not drawn)
- IC50 [1]: > 20 µM (inactive)

Compound: COc1ccccc1CCNC(=O)c1ccc(OC)c(OC2CCN(C(C)C)CC2)c1
- IC50 [2]: 13.5 µM (active)

Compound: COC(=O)c1ccc(C(=O)OC)c(NC(=O)COC(=O)C23CC4CC(CC(O)(C4)C2)C3)c1
- IC50 (H9c2): > 79 µM (inactive)

Compound: O=C(CSc1nc2ccsc2c(=O)n1Cc1ccccc1)NCC1CCCO1 (stereo not drawn)
- IC50 [1]: > 20 µM (inactive)

Compound: CN(C)S(=O)(=O)c1ccc(N2CCCC2)c(C(=O)NCCc2ccc(F)cc2)c1
- AC50 [3]: 5.76 µM (active)
- AC50 [4]: 6.5 µM (active)
- AC50 [5]: 5.95 µM (active)
- AC50 [6]: 9.35 µM (active)

Compound: NC(=O)c1ccsc1NC(=O)c1cc(=O)c2ccccc2o1
- IC50 [7]: > 66.6 µM (inactive)
- IC50 [8]: 11.7 µM (active)

Compound: CCN(CC)S(=O)(=O)c1ccc(NC2c3ccccc3C(=O)N2Cc2ccc3c(c2)OCO3)cc1 (stereo not drawn)
- AC50 [3]: 7.39 µM (active)
- AC50 [5]: 1.33 µM (active)
- AC50 [6]: 3.71 µM (active)

Compound: CCOc1ccc(/C=C2\SC(=S)N(NS(=O)(=O)c3ccccc3)C2=O)cc1OC
- IC50 [2]: 5.37 µM (active)
- IC50 (Genome polyprotein): 71.2 µM (active)

Compound: COc1ccc(CCn2c(Br)nc3c2c(=O)[nH]c(=O)n3C)cc1
- IC50 (H9c2): > 79 µM (inactive)

Compound: Cc1sc2ncnc(N3CCC(C(=O)Nc4cc(S(C)(=O)=O)ccc4Cl)CC3)c2c1C
- AC50 [3]: 3.3 µM (active)
- AC50 [4]: 12.3 µM (active)
- AC50 [5]: 8.97 µM (active)
- AC50 [6]: 30.5 µM (active)

Compound: COc1ccc(C)cc1NCc1ccc(OC)c(C)c1OC
- IC50 [9]: 59.5 µM (active)
- AC50 [10]: > 20 µM (inactive)

Compound: CN(C)C(=O)C1C2N=C(S)N(c3cccc(Cl)c3)C1(C)Oc1ccc(Cl)cc12 (stereo not drawn)
- IC50 (H9c2): 54.6 µM (inactive)

Compound: O=C(CN1CCN(c2ncc(C(F)(F)F)cc2Cl)CC1)NCCNc1ncc(C(F)(F)F)cc1Cl
- AC50 [11]: 5.87 µM (active)

Compound: Cc1ccnc(NCc2c(O)ccc3ccccc23)c1
- IC50 [1]: > 20 µM (inactive)

Compound: O=C(COc1cccc2c1CCNC2=O)Nc1cccc(F)c1
- IC50 (H9c2): > 79 µM (inactive)

Compound: O=C(O)CP(=O)(c1ccccc1)c1ccccc1
- IC50 [7]: > 66.6 µM (inactive)
- IC50 [8]: 100 µM (inactive)

Compound: CCn1c(=O)c(C(=O)NC(C)c2ccccc2)c(O)c2ccccc21 (stereo not drawn)
- IC50 (H9c2): 13.5 µM (active)

Compound: CC1(C)CC(=O)c2cnn(-c3nc4ccccc4[nH]3)c2C1
- AC50 [12]: 14.8 µM (active)

Compound: CCOC(=O)C(C)Oc1ccc(C2NC(=O)NC(C)=C2C(C)=O)cc1Br (stereo not drawn)
- IC50 (H9c2): 30.6 µM (inactive)

Compound: COc1ccc(S(=O)(=O)N2CCCCC2)cc1NC(=O)Cc1ccsc1
- AC50 [10]: 17.1 µM (active)

Compound: O=c1cc(O)ccn1C1C=C(CO)C(O)C1O (stereo not drawn)
- GI50 (SN12K1): > 625 µM (inactive)

Compound: CC1(C)C2CC[C@]3(C)[C@H](C(=O)C=C4[C@@H]5C[C@@](C)(C(=O)O)CC[C@]5(C)CC[C@]43C)[C@@]2(C)CC[C@@H]1O[C@H]1O[C@H](C(=O)O)[C@@H](O)[C@H](O)[C@H]1O[C@@H]1O[C@H](C(=O)O)[C@@H](O)[C@H](O)[C@H]1O (stereo partly drawn)
- IC50 [7]: > 66.6 µM (inactive)
- IC50 [8]: 9.45 µM (active)

Compound: COC(=O)C1=C(C)N(Cc2ccc(Cl)cc2)C(=S)NC1c1ccc(OC)cc1 (stereo not drawn)
- AC50 [3]: 5.23 µM (active)
- AC50 [4]: 12.6 µM (active)
- AC50 [5]: 3.25 µM (active)
- AC50 [6]: 5.7 µM (active)

Compound: Oc1cccc2ccc(/C=C/c3ccccc3Br)nc12
- EC50 (Streptococcus): 3.96 µM (active)
- EC50 [13]: 17.4 µM (active)
- EC50 (BJ [14]): 108 µM (active)
- AC50 [11]: 12.9 µM (active)
- EC50 [15]: 0.212 µM (active)
- EC50 (BJ [16]): 20 µM (active)
- EC50 (BJ [17]): 18.1 µM (active)

Source: ChEMBL document CHEMBL1201862, “PubChem BioAssay data set” (2004)
